Assay results: US8105431B2, “Subphthalocyanine derivative having phosphorus derivative as axially substituted group, method for manufacturing the same and optical film using the same” (Orient Chemical Industries, Ltd., priority 2008, dated 2012)

Columns and labels:
Assay type in all cases: physicochemical
[1] = Solubility to methyl ethyl ketone; settings: for solubility (in words): compared with the halo boron intermediate compounds
[2] = Absorption measurement in chloroform (maximum absorption wavelength, molar absorbance coefficient); settings: for Molar Absorbance Coefficient: 1 cm cell
Description: Measuring methods of the molar absorbance coefficient of the subphthalocyanine derivatives having the phosphorus derivative-substituted group obtained in the Examples 1-9 and the halo boron subphthalocyanine obtained in Synthesis Examples 1-4 were carried out as follows.
10.0 mg of the obtained compound was completely dissolved in 100 ml of chloroform. Then 10 ml of the solution was diluted with 100 ml of chloroform. Thus the absorbance of the obtained solution was measured using spectrophotometer (UV-1700 available from Shimadzu Corporation). Molar absorbance coefficient • was calculated using the following equation: A=•×C×l (A: absorbance, C: concentration (mol/L), l: light path (cm)) In the measurement, light pass length of the cell is 1 cm long.

[3] = Dissolution in coating solution for film manufacture; settings: 0.5 parts in 68.5 parts cyclohexanone and 30 parts methyl ethyl ketone with 1.0 parts polycarbonate
Description: 0.5 parts of Compound 1 obtained in Example 1 and 1.0 parts of polycarbonate were added into 68.5 parts of cyclohexanone and 30 parts of methyl ethyl ketone and stirred and dissolved to obtain a coating solution.
A film was manufactured in the same way as in Example 10 except that Intermediate Compound 1 obtained in Synthesis Example 1 was used in place of Compound 1 in Example 10.

Compound	Solubility ([1]; Solvent: Methyl Ethyl Ketone) [wt %]	solubility (in words) ([1]; methyl ethyl ketone)	Maximum Absorption Wavelength [2] [nm]	Molar Absorbance Coefficient [2]	Solubility ([1]; methyl ethyl ketone)	dissolution in coating liquid [3]
O=P(OB1n2c3c4ccccc4c2/N=C2N=C(/N=c4/c5ccccc5c(n41)=N3)c1ccccc1\2)(c1ccccc1)c1ccccc1 [Compound 1, SubPcBOPOPh2]	0.44	remarkably improved	564.0	7.69 ×10^−4 Lmol^−1cm^−1		
O=P(OB1n2c3c4ccccc4c2/N=C2N=C(/N=c4/c5ccccc5c(n41)=N3)c1ccccc1\2)(Oc1ccccc1)Oc1ccccc1 [Compound 3, SubPcBOPO(OPh)2]	0.34	remarkably improved	564.5	6.96 ×10^−4 Lmol^−1cm^−1		
CCCCOP(=O)(OCCCC)OB1n2c3c4ccccc4c2/N=C2N=C(/N=c4/c5ccccc5c(n41)=N3)c1ccccc1\2 [Compound 4, SubPcBOPO(OBu)2]	>10	remarkably improved	562.5	7.78 ×10^−4 Lmol^−1cm^−1	more than 10 % by weight	
ClB1n2c3c4ccccc4c2/N=C2N=C(/N=c4/c5ccccc5c(n41)=N3)c1ccccc1\2 [Intermediate Compound 1, SubPcBCl, reference compound]	0.003		565.0	5.10 ×10^−4 Lmol^−1cm^−1		could not be fully dissolved
(PhS)3SubPcBCl [Intermediate Compound 11, reference compound]			586.0	7.58 ×10^−4 Lmol^−1cm^−1		
(PhS)3SubPcBOPO(OBu)2 [Compound 26]	>10		584.0	9.95 ×10^−4 Lmol^−1cm^−1		
(PhS)3SubPcBOPOPh2 [Compound 24]	>10		584.5	7.24 ×10^−4 Lmol^−1cm^−1		
(i-C5H11S)3 SubPcBCl [Intermediate Compound 6, reference compound]			587.5	5.82 ×10^−4 Lmol^−1cm^−1		
(i-C5H11S)3SubPcBOPO(OPh)2 [Compound 13]			586.5	8.20 ×10^−4 Lmol^−1cm^−1		
(i-C5H11S)3SubPcBOPOPh2 [Compound 11]	>10		586.0	7.12 ×10^−4 Lmol^−1cm^−1		
(t-Bu)3 SubPcBCl [Intermediate Compound 2, reference compound]	>10					
(t-Bu)3SubPcBOPO(OBu)2 [Compound 7]	>10		568.0	7.62 ×10^−4 Lmol^−1cm^−1		
(t-Bu)3SubPcBOPOPh2 [Compound 5]	>10		570.5	8.74 ×10^−4 Lmol^−1cm^−1		
